Results taken from US7846937B2, “Cyclopropanecarboxylate esters of acyclovir” (Eli Lilly and Company, priority 2005, dated 2010).
Read-outs that look alike come from different tables or passages of the source.

Test: Hydrolytic stability in buffered aqueous solutions (HPLC)
Type: physicochemical
Conditions: 40° C., read-out: t1/2 (hr) at 40° C. (converted)
Protocol: Hydrolytic stability of valacyclovir and 1-amino-cyclopropanecarboxylic acid 2-(2-amino-6-oxo-1,6-dihydro-purin-9-ylmethoxy)-ethyl ester trifluoroacetic acid salt
Test samples of valacyclovir and 1-amino-cyclopropanecarboxylic acid 2-(2-amino-6-oxo-1,6-dihydro-purin-9-ylmethoxy)-ethyl ester trifluoroacetic acid salt (Example 1) are dissolved in buffered solutions of known pH at a concentration of 100 mcg/mL. Compound samples are prepared in 0.1 N hydrochloric acid for pH 1 and phosphate based buffer for pH2, 4, 6, 8 and 10. Stability is conveniently assessed using a semi-automated HPLC technique. Compound samples are loaded onto an HPLC autosampler incubated at 40° C. Samples are repeatedly injected on the HPLC at specific time intervals. The peak area of the compound samples are monitored by UV detection.
The HPLC system consisted of an Agilent® 1100 autoinjector, pump, degasser and LV detector. A Waters® Atlantis dC-18 column (3 micron, 150×4.6 mm I.D.) is used to separate the degradation products from the compound sample. An isocratic reversed-phase system using ultraviolet detection is used to monitor the peak areas of the compound sample over a 24 hour period. The mobile phase composition is 5% acetonitrile and 95% water with 0.1% trifluoroacetic acid added to the mixture. The flow rate is 1.5 mL/min. The column temperature is 30 degrees Celsius and the injection volume was 10 μL. The UV detector is set at 256 nm and the run time was 9 minutes. Time points are analyzed every 2 hours for each buffer while being incubated at 40 degrees Celsius by the thermostat controlled autosampler.
The peak area of the compound sample is monitored over a 24 hour period at 2 hour intervals. The peak area of the compound sample is plotted versus time for each of the buffers tested. A first order calculation is used to determine the rate constant for each buffer based on the loss of peak area over time. The half-life, in hours, is calculated by dividing 0.693 by the rate constant (k). t1/2 (hr)=0.693/k.

[1] = pH = 1, 0.1 N hydrochloric acid
[2] = pH = 10, phosphate based buffer

Nc1nc2c(ncn2COCCOC(=O)C2(N)CC2)c(=O)[nH]1.O=C(O)C(F)(F)F [Example 1, 1-amino-cyclopropanecarboxylic acid 2-(2-amino-6-oxo-1,6-dihydro-purin-9-ylmethoxy)-ethyl ester trifluoroacetic acid salt]
half-life at 100 mcg/mL [1]: > 300 h | half-life at 100 mcg/mL (pH = 2, phosphate based buffer): > 300 h | half-life at 100 mcg/mL (pH = 4, phosphate based buffer): > 300 h | half-life at 100 mcg/mL (pH = 6, phosphate based buffer): > 300 h | half-life at 100 mcg/mL (pH = 8, phosphate based buffer): 90.1 h | half-life at 100 mcg/mL [2]: 23.8 h

CC(C)[C@H](N)C(=O)OCCOCn1cnc2c(=O)[nH]c(N)nc21 [valacyclovir, 2(2-amino-1,6-didydro-6-oxo-9H(purin-9-yl)methoxy)ethyl L-valinate]
half-life at 100 mcg/mL [1]: > 300 h | half-life at 100 mcg/mL (pH = 2, phosphate based buffer): > 300 h | half-life at 100 mcg/mL (pH = 4, phosphate based buffer): > 300 h | half-life at 100 mcg/mL (pH = 6, phosphate based buffer): 69.7 h | half-life at 100 mcg/mL (pH = 8, phosphate based buffer): 7.8 h | half-life at 100 mcg/mL [2]: 6.8 h
